pIC50: −log10 of the molar value.
These compounds were tested against Recombinant human Cbl-b (aa 36-427) (Homo sapiens (Human), UniProt Q13191) (assay: Cbl-b Biochemical Assay (TR-FRET)). Details: read-out: TR-FRET hCbl-b IC50.
Experimental: Recombinant human Cbl-b (aa 36-427) was expressed in E. coli, purified and biotinylated in vitro. The protein was diluted to 12 nM in freshly prepared assay buffer consisting of 50 mM HEPES, pH 7.0, 100 mM NaCl, 5 mM MgCl2, 0.01% Triton-X 100, 0.01% BSA and 1 mM DTT. Recombinant human Src (aa 254-536)-[…]-Zap-70 (aa 281-297) fusion protein was expressed in E. coli and purified. Protein was diluted in assay buffer to 2-5 nM and supplemented with ATP to 1 mM. Fluorescein-BODIPY labeled UBE[…]([…])-Ub was prepared by conjugating ubiquitin (Ub) labeled at its N-terminus with Fluorescein-BODIPY maleimide (ThermoFisher Catalog no B10250) to E. coli expressed and purified UBE[…]([…]) [see Dou et al Nature Structural and Molecular Biology 8: 982-987, 2013]. Recombinant human UBE2D2([…]) was expressed in E. coli, purified and ubiquitinated and Bodipy labelled in vitro. Protein was diluted to 200 nM in assay buffer without MgCl2 (or Cisbio PPI buffer). Streptavidin-Terbium was added to 2 nM and EDTA to 10 mM, to provide a binding assay mix. Compounds were dissolved in DMSO and diluted to prepare a ten-point dilution series. 100 nl of each compound concentration was dispensed in duplicate in a 384 well black assay plate using acoustic dispensing. Wells for maximum signal controls received 100 nl of DMSO only and wells for minimum signal controls received 100 nl of a reference inhibitor compound at a final assay concentration of […] to produce 100% inhibition. 5 μl of diluted Cbl-b enzyme was added to all wells of the assay plate and incubated at RT for 30-60 min. The enzyme assay was initiated by addition of 5 μl of Src-Zap/ATP mix to all wells, and the plate incubated at RT for 60 min. The enzyme reaction was terminated and the binding reaction was initiated by adding 10 μl of binding assay mix to all wells and incubating the plate at RT for 60 min prior to assay read. Final assay conditions consisted of 6 nM Cbl-b, 1-2.5 nM Src-Zap70, 0.5 mM ATP, 1% (v/v) DMSO (enzyme reaction) and 100 nM UBE2D2([…])-Ub-FL-BODIPY, 5 mM EDTA, 1 nM Streptavidin-Tb (binding reaction). The HTRF assay signal was measured at 520 nm on an Envision plate reader, with reference signal at 485 or 620 nm. Data was normalized using maximum and minimum assay controls: % Inhibition=100-(100*((maximum control)-unknown)/(maximum control-minimum control)). A 4-parameter dose-response equation was used to fit the normalized dose-response data and derive an IC50 for test compounds.

Recombinant human Cbl-b (aa 36-427), sequence (Q13191 36-427): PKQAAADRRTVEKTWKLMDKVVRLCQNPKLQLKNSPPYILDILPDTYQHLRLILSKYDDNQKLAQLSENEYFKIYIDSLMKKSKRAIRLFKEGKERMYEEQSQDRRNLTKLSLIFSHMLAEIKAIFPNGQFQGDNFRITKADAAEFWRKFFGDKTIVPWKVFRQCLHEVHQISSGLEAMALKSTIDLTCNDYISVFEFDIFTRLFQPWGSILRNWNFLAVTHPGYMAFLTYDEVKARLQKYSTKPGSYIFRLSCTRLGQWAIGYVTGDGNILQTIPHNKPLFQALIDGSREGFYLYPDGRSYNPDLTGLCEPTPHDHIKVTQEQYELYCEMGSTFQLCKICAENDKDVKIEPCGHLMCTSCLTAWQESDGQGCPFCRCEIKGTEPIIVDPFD

Compound	pIC50
CCNc1cc(-c2c(-c3nncn3C)cnn2C)cc(N2Cc3c(cc(CO)cc3C(F)(F)F)C2=O)n1 [ACH-1, 2-(6-(Ethylamino)-4-(1-methyl-4-(4-methyl-4H-1,2,4-triazol-3-yl)-1H-pyrazol-5-yl)pyridin-2-yl)-6-(hydroxymethyl)-4-(trifluoromethyl)isoindolin-1-one]	≥ 6.70
CCNc1cc(-c2c(-c3nncn3C)cnn2C)cc(N2Cc3c(cc(OCCN4CCCC4)cc3C(F)(F)F)C2=O)n1 [ACN-5, 2-(6-(Ethylamino)-4-(1-methyl-4-(4-methyl-4H-1,2,4-triazol-3-yl)-1H-pyrazol-5-yl)pyridin-2-yl)-6-(2-(pyrrolidin-1-yl)ethoxy)-4-(trifluoromethyl)isoindolin-1-one]	≥ 6.70
CCNc1cc(-c2c(-c3nncn3C)cnn2C)cc(N2Cc3c(cc(CN4CCC[C@@H](C)C4)cc3C(F)(F)F)C2=O)n1 [ACE-1, (R)-2-(6-(Ethylamino)-4-(1-methyl-4-(4-methyl-4H-1,2,4-triazol-3-yl)-1H-pyrazol-5-yl)pyridin-2-yl)-6-((3-methylpiperidin-1-yl)methyl)-4-(trifluoromethyl) isoindolin-1-one]	≥ 6.70
Cn1cnnc1-c1cnn(C)c1-c1cc(NS(C)(=O)=O)nc(N2Cc3c(cccc3C(F)(F)F)C2=O)c1 [AAW-2, N-(4-(1-Methyl-4-(4-methyl-4H-1,2,4-triazol-3-yl)-1H-pyrazol-5-yl)-6-(1-oxo-4-(trifluoromethyl)isoindolin-2-yl)pyridin-2-yl)methanesulfonamide]	5.00 to 6.00
Cn1cnnc1-c1ccccc1-c1cc(N2Cc3c(cccc3C(F)(F)F)C2=O)nc2[nH]ccc12 [Example L-5, 2-(4-(2-(4-Methyl-4H-1,2,4-triazol-3-yl)phenyl)-1H-pyrrolo[2,3-b]pyridin-6-yl)-4-(trifluoromethyl)isoindolin-1-one]	4.30 to 5.00
CCNc1cc(-c2c(-c3nncn3C)cnn2C)cc(N2Cc3c(cc(CN4CCC[C@H](C)C4)cc3C(F)(F)F)C2=O)n1 [ACF-1, (S)-2-(6-(Ethylamino)-4-(1-methyl-4-(4-methyl-4H-1,2,4-triazol-3-yl)-1H-pyrazol-5-yl)pyridin-2-yl)-6-((3-methylpiperidin-1-yl)methyl)-4-(trifluoromethyl)isoindolin-1-one]	≥ 6.70
Cn1cnnc1-c1ccccc1-c1cccc(N2Cc3c(cc(CN[C@@H]4CCC[C@H]4O)cc3C(F)(F)F)C2=O)c1 [Example W-2, 6-((((1R,2R)-2-Hydroxycyclopentyl)amino)methyl)-2-(2′-(4-methyl-4H-1,2,4-triazol-3-yl)-[1,1′-biphenyl]-3-yl)-4-(trifluoromethyl)isoindolin-1-one]	≥ 6.70
CCOc1cc(-c2ccccc2-c2nncn2C)cc(N2Cc3c(cccc3C(F)(F)F)C2=O)c1 [AAR-5, 2-(5-Ethoxy-2′-(4-methyl-4H-1,2,4-triazol-3-yl)-[1,1′-biphenyl]-3-yl)-4-(trifluoromethyl) isoindolin-1-one]	6.00 to 6.70
CCNc1cc(-c2c(-c3nncn3C)cnn2C)cc(N2Cc3c(cc(COC(C)C)cc3C(F)(F)F)C2=O)n1 [ACW-1, 2-(6-(Ethylamino)-4-(1-methyl-4-(4-methyl-4H-1,2,4-triazol-3-yl)-1H-pyrazol-5-yl)pyridin-2-yl)-6-(isopropoxymethyl)-4-(trifluoromethyl)isoindolin-1-one]	≥ 6.70
CCNc1cc(-c2c(-c3nncn3C)cnn2C)cc(N2Cc3c(cc(C(=O)N4CC[C@H](O)C4)cc3C(F)(F)F)C2=O)n1 [ACS-4, (S)-2-(6-(Ethylamino)-4-(1-methyl-4-(4-methyl-4H-1,2,4-triazol-3-yl)-1H-pyrazol-5-yl)pyridin-2-yl)-6-(3-hydroxypyrrolidine-1-carbonyl)-4-(trifluoromethyl)isoindolin-1-one]	≥ 6.70
CCNc1cc(-c2c(-c3nncn3C)cnn2C)cc(N2Cc3c(cccc3C(F)(F)F)C2=O)c1 [ABX-6, 2-[3-(Ethylamino)-5-[2-methyl-4-(4-methyl-1,2,4-triazol-3-yl)pyrazol-3-yl]phenyl]-4-(trifluoromethyl)-3H-isoindol-1-one]	≥ 6.70
CCNc1cc(-c2ccccc2-c2nncn2C)cc(N2Cc3c(cc(CN4CCC5(CC4)CC5)cc3C(F)(F)F)C2=O)n1 [AI-2, 6-((6-Azaspiro[2.5]octan-6-yl)methyl)-2-(6-(ethylamino)-4-(2-(4-methyl-4H-1,2,4-triazol-3-yl)phenyl)pyridin-2-yl)-4-(trifluoromethyl)isoindolin-1-one]	≥ 6.70
CCNc1cc(-c2c(-c3nncn3C)cnn2C)cc(N2Cc3c(cc(CN4CCC5(CC5)C4)cc3C(F)(F)F)C2=O)n1 [ABC-7, 6-((5-Azaspiro [2.4]heptan-5-yl)methyl)-2-(6-(ethylamino)-4-(1-methyl-4-(4-methyl-4H-1,2,4-triazol-3-yl)-1H-pyrazol-5-yl)pyridin-2-yl)-4-(trifluoromethyl)isoindolin-1-one]	> 6.70
CCNc1cc(-c2c(-c3nncn3C)cnn2C)cc(NC(=O)c2cc(C)cc(C3CC3)n2)n1 [ABW-3, 6-Cyclopropyl-N-(6-(ethylamino)-4-(1-methyl-4-(4-methyl-4H-1,2,4-triazol-3-yl)-1H-pyrazol-5-yl)pyridin-2-yl)-4-methylpicolinamide]	6.00 to 6.70
Cn1cnnc1-c1ccccc1-c1cccc(NC(=O)c2cc(=O)[nH]c(C3CC3)n2)c1 [AAP-1, 2-Cyclopropyl-N-(2′-(4-methyl-4H-1,2,4-triazol-3-yl)-[1,1′-biphenyl]-3-yl)-6-oxo-1,6-dihydropyrimidine-4-carboxamide]	5.00 to 6.00
Cn1cnnc1-c1cnn(C)c1-c1ccnc(N2Cc3c(cccc3C(F)(F)F)C2=O)c1 [AAM-3, 2-(4-(1-Methyl-4-(4-methyl-4H-1,2,4-triazol-3-yl)-1H-pyrazol-5-yl)pyridin-2-yl)-4-(trifluoromethyl)isoindolin-1-one]	5.00 to 6.00
Cc1conc1-c1ccccc1-c1cccc(N2Cc3c(cccc3C(F)(F)F)C2=O)c1 [AAZ-7, 2-(2′-(4-Methylisoxazol-3-yl)-[1,1′-biphenyl]-3-yl)-4-(trifluoromethyl)isoindolin-1-one]	5.00 to 6.00
CCNc1cc(-c2ccccc2-c2nncn2C)cc(N2Cc3c(cc(CN4CCC(F)(F)C(C)C4)cc3C(F)(F)F)C2=O)n1 (stereo not drawn) [AK-2, 6-((4,4-Difluoro-3-methylpiperidin-1-yl)methyl)-2-(6-(ethylamino)-4-(2-(4-methyl-4H-1,2,4-triazol-3-yl)phenyl)pyridin-2-yl)-4-(trifluoromethyl)isoindolin-1-one]	≥ 6.70
Cn1cnnc1-c1ccccc1-c1cccc(N2Cc3c(cc(CN[C@H]4CCC[C@@H]4O)cc3C(F)(F)F)C2=O)c1 [Example T-2, 6-((((1S,2S)-2-Hydroxycyclopentyl)amino)methyl)-2-(2′-(4-methyl-4H-1,2,4-triazol-3-yl)-[1,1′-biphenyl]-3-yl)-4-(trifluoromethyl)isoindolin-1-one]	≥ 6.70
CCNc1cc(-c2ccccc2-c2nncn2C)cc(N2Cc3c(cc(CN[C@@H]4CCC[C@@H]4O)cc3C(F)(F)F)C2=O)n1 [AQ-1, 2-(6-(Ethylamino)-4-(2-(4-methyl-4H-1,2,4-triazol-3-yl)phenyl)pyridin-2-yl)-6-((((1R,2S)-2-hydroxycyclopentyl)amino)methyl)-4-(trifluoromethyl)isoindolin-1-one]	≥ 6.70
Cn1cc(-c2nncn2C)c(-c2cccc(N3Cc4c(cccc4C(F)(F)F)C3=O)c2)n1 [AAL-8, 2-[3-[1-Methyl-4-(4-methyl-1,2,4-triazol-3-yl)pyrazol-3-yl]phenyl]-4-(trifluoromethyl)-3H-isoindol-1-one]	4.30 to 5.00
Cn1cnnc1-c1ccccc1-c1cc(CO)cc(N2Cc3c(cccc3C(F)(F)F)C2=O)c1 [Example N-5, 2-(5-(Hydroxymethyl)-2′-(4-methyl-4H-1,2,4-triazol-3-yl)-[1,1′-biphenyl]-3-yl)-4-(trifluoromethyl)isoindolin-1-one]	5.00 to 6.00
COC(=O)c1cc(-c2ccccc2-c2nncn2C)cc(N2Cc3c(cccc3C(F)(F)F)C2=O)c1 [Example H-5, Methyl 2′-(4-methyl-4H-1,2,4-triazol-3-yl)-5-(1-oxo-4-(trifluoromethyl)isoindolin-2-yl)-[1,1′-biphenyl]-3-carboxylate]	4.30 to 5.00
Cn1cnnc1-c1ccccc1-c1cccc(N2Cc3c(cc(CN4CC[C@H](F)C4)cc3C(F)(F)F)C2=O)c1 [Example V-2, (S)-6-((3-Fluoropyrrolidin-1-yl)methyl)-2-(2′-(4-methyl-4H-1,2,4-triazol-3-yl)-[1,1′-biphenyl]-3-yl)-4-(trifluoromethyl)isoindolin-1-one]	≥ 6.70
